Reference: publication PMC9338108 (Clinical Drug Investigation, 2022)
Values joined by “and” are separate entries in the source; they are usually repeats but may differ in a detail not shown here. Identical values can stand only once. Like-named read-outs stand apart in the source and are kept apart here.

Legend:
[1] = assay type: in vivo, human
[2] = Safety assessment Study 106 Part A; conditions: for TEAEs related to individual study drugs: N = 33
[3] = assay type: in vivo, human; remark: listed apart in the source
[4] = assay type: in vivo, human; remark: listed apart in the source
[5] = Safety assessment Study 114; assay type: in vivo, human; conditions: Study 114, N = 20
[6] = test system: P-glycoprotein transporter; conditions: ref data on file, G1 Therapeutics; cited from earlier work
cytochrome P450 3A4 = conditions: background statement; cited from earlier work
[7] = ref data on file, G1 Therapeutics; cited from earlier work
[8] = cited from earlier work
[9] = Safety assessment Study 106 Part B; conditions: N = 24
[10] = cited from earlier work; remark: listed apart in the source
clinical = conditions: human, plasma
[11] = trilaciclib vs trilaciclib alone
[12] = all resolved without intervention
[13] = metformin 1000 mg oral single dose alone, urine, N = 25, geometric mean (CV%)

Work on `Cc1ncc2n1-c1ccc(Cl)cc1C(c1ccccc1F)=NC2` [Midazolam, midazolam] yielded a Vd/F ([1]; human, plasma, oral) of 658 L, an AUC(0-inf) ([1]; human, plasma, po, 5 mg) of 64.6 ng·h/mL and an AUC(0-t) ([1]; human, plasma, po, 5 mg) of 62.1 ng·h/mL. It also gave a Cmax ([1]; human, plasma, po, 5 mg) of 24.4 ng/mL, a Vd/F ([1]; human, plasma, po, 5 mg) of 635 L and a half-life ([1]; human, plasma, po, 5 mg) of 341 min. The CL/F ([1]; midazolam 5 mg oral single dose alone, N = 25, geometric mean (CV%)) was 77.4 (34.2) L/h, the Tmax ([1]; midazolam 5 mg oral single dose alone, N = 25, median (range)) was 0.50 (0.25–1.50) h and the “Cmax decrease after multiple IV doses of trilaciclib” value ([1]; midazolam vs midazolam alone) was 16.6%. For the same compound, the “geometric mean AUC0–inf higher after coadministration with trilaciclib” value ([1]; midazolam vs midazolam alone) was 4.6%, the “geometric mean AUC0–last higher after coadministration with trilaciclib” value ([1]; midazolam vs midazolam alone) was 4.0% and the “TEAEs related to individual study drugs” value [2] was 16 (48.5) n (%).
`CN1CCN(c2ccc(Nc3ncc4cc5n(c4n3)C3(CCCCC3)CNC5=O)nc2)CC1` [Trilaciclib, trilaciclib] gave a Tmax ([3]; human, plasma, intravenous) of 30 min, a clearance ([3]; human, plasma, intravenous) of 3520 mL/min and an AUC(0-inf) ([3]; human, plasma, iv, 240 mg/m2) of 2700 ng·h/mL. For the same compound, the AUC(0-t) ([3]; human, plasma, iv, 240 mg/m2) was 2670 ng·h/mL, the Cmax ([3]; human, plasma, iv, 240 mg/m2) was 1600 ng/mL and the Tmax ([3]; human, plasma, iv, 240 mg/m2) was 25.2 min. The clearance ([3]; human, plasma, iv, 240 mg/m2) was 2920 mL/min, the half-life ([3]; human, plasma, iv, 240 mg/m2) was 606 min and the “geometric mean AUC0–inf decrease with rifampin” value [3, 11] was 17.3% and 17%. For the same compound, the “geometric mean AUC0–last decrease with rifampin” value [3, 11] was 17.3%, the “geometric mean Cmax reduction with rifampin” value [3, 11] was 19.9% and the Tmax ([4]; human, plasma, intravenous) was 28.8 min. It also gave an AUC(0-inf) ([4]; human, plasma, iv, 200 mg/m2) of 3120 ng·h/mL, an AUC(0-t) ([4]; human, plasma, iv, 200 mg/m2) of 3070 ng·h/mL and a Cmax ([4]; human, plasma, iv, 200 mg/m2) of 1770 ng/mL. For the same compound, the Tmax ([4]; human, plasma, iv, 200 mg/m2) was 24 min, the clearance ([4]; human, plasma, iv, 200 mg/m2) was 2120 mL/min and the half-life ([4]; human, plasma, iv, 200 mg/m2) was 547 min. The “geometric mean AUC0–inf decrease with itraconazole” value [4, 11] was 14.0% and 13.6%, the “geometric mean AUC0–last decrease with itraconazole” value [4, 11] was 13.3% and the “geometric mean Cmax decrease with itraconazole” value [4, 11] was 28.0%. For the same compound, the “TEAEs related to individual study drugs” value [5] was 9 (45.0) n (%), the “substrate of the P-glycoprotein transporter” value [6] was “substrate of the P-glycoprotein transporter” and the “time-dependent inhibitor of cytochrome P450 3A4” value (cytochrome P450 3A4) was “time-dependent inhibitor of cytochrome P450 3A4”. For the same compound, the “unbound fraction in plasma” value [7] was “approximately 30%”, the clearance [8] was 158 L/h and the “mean terminal half-life (t1/2)” value [8] was “approximately 14 h”. For the same compound, the “parent molecule recovered in the excreta” value [8] was “less than 10%”, the “TEAEs related to individual study drugs” value [9] was 20 (83.3) n (%) and the “subjects reporting TEAEs of thrombophlebitis” value ([2]; 25 subjects enrolled after adjustment of drug administration) was 24%. For the same compound, the “TEAEs related to individual study drugs” value [2] was 33 (100) n (%), the “subjects with Grade 3 TEAEs of neutropenia related to trilaciclib” value [2, 12] was 5 n and the “subjects with Grade 4 TEAEs of neutropenia related to trilaciclib” value [2, 12] was 1 n. The “subjects discontinued because of phlebitis in the arm related to trilaciclib administration” value ([2]; initial eight subjects (Site 1)) was “eight”.
With `CCC(C)n1ncn(-c2ccc(N3CCN(c4ccc(OCC5COC(Cn6cncn6)(c6ccc(Cl)cc6Cl)O5)cc4)CC3)cc2)c1=O` (centres unmarked) [Itraconazole, itraconazole, reference compound] the “TEAEs related to individual study drugs” value [5] was 2 (10.0) n (%).
For `CN(C)C(=N)N=C(N)N` [Metformin, metformin], the Tmax (metformin 1000 mg oral single dose alone, N = 25, median (range)) was 2.50 (1.50–5.00) h, the “Ae (total amount of drug excreted in urine)” value [13] was 342 (25.1) mg and the “Fe (percentage of drug excreted in urine)” value [13] was 34.2 (25.1) %. For the same compound, the “geometric mean AUC0–inf higher after coadministration with trilaciclib” value (metformin vs metformin alone) was 64.6%, the “geometric mean AUC0–last higher after coadministration with trilaciclib” value (metformin vs metformin alone) was 66.0% and the “geometric mean Cmax higher after coadministration with trilaciclib” value (metformin vs metformin alone) was 79.8%. For the same compound, the “AUC0–24 as share of AUC0–inf” value [10] was “approximately 95%”, the Vd/F (clinical; oral) was 556 L and the AUC(0-inf) (clinical; po, 1000 mg) was 11900 ng·h/mL. For the same compound, the Cmax (clinical; po, 1000 mg) was 1650 ng/mL and the “TEAEs related to individual study drugs” value [2] was 7 (21.2) n (%).
In the case of `CO[C@H]1/C=C/O[C@@]2(C)Oc3c(C)c(O)c4c(O)c(c(/C=N/N5CCN(C)CC5)c(O)c4c3C2=O)NC(=O)/C(C)=C\C=C\[C@H](C)[C@H](O)[C@@H](C)[C@@H](O)[C@@H](C)[C@H](OC(C)=O)[C@@H]1C` [Rifampin, rifampin, reference compound], the “TEAEs related to individual study drugs” value [9] is reported as 19 (79.2) n (%).
